Measured values reported in patent US20140271694A1, “ANTIGEN-SPECIFIC METHODS OF DIAGNOSING AND/OR TREATING MYOCARDITIS OR INFLAMMATORY CARDIOMYOPATHY” (Joslin Diabetes Center, Inc., priority 2013, published 2014).
“Also recorded” adds a separate entry of the source.

Assays:
[1] = tested on: alpha myosin HC presentation to DQ8 molecules; experiment: Cardiac myosin-specific DQ8-restricted Clone E T cell hybridoma (BWZ.36.CE, lacZ/β-galactosidase readout) antigen presentation assay; format: cell-based, human; details: in vitro, dose-dependent, DQ8-expressing APCs
Text: FIGS. 15A-C are data showing that the small molecule, tetraazatricyclododecane (TATD), that was predicted to bind pocket 6 of the DQ8 peptide-binding groove (Michels et al, Journal of immunology, 2011), inhibits cardiac myosin presentation by DQ8 to T cells. FIGS. 15A and B are graphs showing that T cell response to insulin B9:23 peptide, measured by IL-2 concentration, is blocked by TATD in a dose dependent manner, for DQ8 and I-Ag7 (Michels et al., Journal of Immunology, 2011). FIG. 15C is a graph showing that T cell response to cardiac myosin stimulation is blocked in vitro by TATD is a dose-dependent manner, in a manner similar to the blocking effect on insulin B9:23 presentation to DQ8. In this assay, T cell responses were measured using our cardiac myosin-specific DQ8-restricted (Clone E) T cell hybridoma that was engineered to produce β-galactosidase following T-cell receptor-antigen stimulation.
To assess the potential efficacy in the setting of post-infarct autoimmunity, we created a lacZ-inducible alpha myosin HC-specific CD4^+ T-cell hybridoma by fusing Clone E, a pathogenic DQ8-restricted CD4^+ T cell clone isolated from a myocarditic heart (Lv H et al., J Clin Invest, 2011) (FIGS. 14A-D), and BWZ.36 fusion partner (Karttunen J et al., Proc Natl Acad Sci USA, 1992), and successfully generated the hybrid, BWZ.36.CE. […]

[2] = tested on: DQ8; details: cited from earlier work
[3] = tested on: I-Ag7; details: I-Ag7, dose dependent; cited from earlier work
[4] = tested on: NOD mice; details: cited from earlier work

C1CN2CN3CCN(CN1C3)C2 [TATD, tetraazatricyclododecane]
block of alpha myosin HC presentation to DQ8 molecules (T cell response to cardiac myosin stimulation) [1]: completely block; also recorded: blocked | T cell response to insulin B9:23 peptide, measured by IL-2 concentration ([2]; DQ8, dose dependent): blocked | relative potency of blocking DQ8 versus I-Ag7 molecules ([2]; DQ8 compared with I-Ag7): more potently blocks DQ8 than I-A^g7 | T cell response to insulin B9:23 peptide, measured by IL-2 concentration [3]: blocked | preventing T1D in NOD mice [4]: efficacious
